The values below are quoted from earlier work in EP4520317A1, “TRANSDERMAL THERAPEUTIC SYSTEM OF LUMATEPERONE” (Luye Pharma Switzerland AG, priority 2023, dated 2025).

The conditions of this data set: in vivo.

Consider `CN1CCN2c3c(cccc31)[C@@H]1CN(CCCC(=O)c3ccc(F)cc3)CC[C@@H]12` [lumateperone, 1-(4-fluoro-phenyl)-4-((6bR, 10aS)-3-methyl-2,3,6b,9,10,10a-hexahydro-1H,7H-pyrido[3',4':4,5]pyrrolo[1,2,3-de]quinoxalin-8-yl)-butan-1-one], for which the oral bioavailability result is listed as “about 4.4%”.
